Test results as given in ChEMBL document CHEMBL1201862, “PubChem BioAssay data set” (2004).
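Exposure lasted 48 hours, with cells grown in 96-well plates and compounds tested at five concentrations. The concentration for 50% growth inhibition is given as GI50.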 Activity calls are given as the source filed them. Rule as the data show it: active = GI50 up to about 1.1 µM and inactive = higher.

How the values were obtained:
Experiment in all cases: NCI-60 cell line screen, 48 h
786-0 = system: 786-0
A498 = system: A498
A549 = system: A549
ACHN = system: ACHN
BT-549 = system: BT-549
CAKI-1 = system: CAKI-1
CCRF-CEM = system: CCRF-CEM
COLO 205 = system: COLO 205
EKVX = system: EKVX
HCC 2998 = system: HCC 2998
HCT-116 = system: HCT-116
HCT-15 = system: HCT-15
HL-60 = system: HL-60
HOP-62 = system: HOP-62
HOP-92 = system: HOP-92
HT-29 = system: HT-29
Hs-578T = system: Hs-578T
IGROV-1 = system: IGROV-1
K562 = system: K562
LOX IMVI = system: LOX IMVI
M14 = system: M14
MCF7 = system: MCF7
MDA-MB-435 = system: MDA-MB-435
MDA-N = system: MDA-N
MOLT-4 = system: MOLT-4
Malme-3M = system: Malme-3M
NCI-H23 = system: NCI-H23
NCI-H460 = system: NCI-H460
NCI/ADR-RES = system: NCI/ADR-RES
OVCAR-3 = system: OVCAR-3
OVCAR-4 = system: OVCAR-4
OVCAR-5 = system: OVCAR-5
OVCAR-8 = system: OVCAR-8
PC-3 = system: PC-3
RPMI-8226 = system: RPMI-8226
SF-268 = system: SF-268
SF-295 = system: SF-295
SF-539 = system: SF-539
SK-MEL-28 = system: SK-MEL-28
SK-MEL-2 = system: SK-MEL-2
SK-MEL-5 = system: SK-MEL-5
SK-OV-3 = system: SK-OV-3
SN12C = system: SN12C
SNB-19 = system: SNB-19
SR = system: SR
SW-620 = system: SW-620
TK-10 = system: TK-10
UACC-257 = system: UACC-257
UACC-62 = system: UACC-62
UO-31 = system: UO-31
DU-145 = system: DU-145
KM12 = system: KM12
MDA-MB-231 = system: MDA-MB-231
NCI-H226 = system: NCI-H226
NCI-H522 = system: NCI-H522
RXF 393 = system: RXF 393
U-251 = system: U-251
SNB-75 = system: SNB-75
T47D = system: T47D

With `CC(C)(C)OC(=O)C1/C(=C/CO)CN1C(=O)OC(C)(C)C` (stereo not given) the GI50 (786-0) was > 100 µM (inactive), the GI50 (A498) was > 100 µM (inactive) and the GI50 (A549) was > 100 µM (inactive). The GI50 (ACHN) was > 100 µM (inactive), the GI50 (BT-549) was > 100 µM (inactive) and the GI50 (CAKI-1) was > 100 µM (inactive). For the same compound, the GI50 (CCRF-CEM) was 76.2 µM (inactive), the GI50 (COLO 205) was > 100 µM (inactive) and the GI50 (EKVX) was > 100 µM (inactive). The GI50 (HCC 2998) was > 100 µM (inactive), the GI50 (HCT-116) was > 100 µM (inactive) and the GI50 (HCT-15) was > 100 µM. For the same compound, the GI50 (HL-60) was > 100 µM (inactive), the GI50 (HOP-62) was > 100 µM (inactive) and the GI50 (HOP-92) was > 100 µM (inactive). For the same compound, the GI50 (HT-29) was > 100 µM (inactive), the GI50 (Hs-578T) was > 100 µM (inactive) and the GI50 (IGROV-1) was > 100 µM (inactive). The GI50 (K562) was > 100 µM (inactive), the GI50 (LOX IMVI) was > 100 µM (inactive) and the GI50 (M14) was > 100 µM (inactive). The GI50 (MCF7) was > 100 µM (inactive), the GI50 (MDA-MB-435) was > 100 µM (inactive) and the GI50 (MDA-N) was > 100 µM (inactive). The GI50 (MOLT-4) was 57.3 µM (inactive), the GI50 (Malme-3M) was > 100 µM (inactive) and the GI50 (NCI-H23) was > 100 µM (inactive). The GI50 (NCI-H460) was > 100 µM (inactive), the GI50 (NCI/ADR-RES) was > 100 µM (inactive) and the GI50 (OVCAR-3) was > 100 µM (inactive). The GI50 (OVCAR-4) was 63.7 µM (inactive), the GI50 (OVCAR-5) was > 100 µM (inactive) and the GI50 (OVCAR-8) was > 100 µM (inactive). The GI50 (PC-3) was > 100 µM (inactive), the GI50 (RPMI-8226) was > 100 µM (inactive) and the GI50 (SF-268) was > 100 µM (inactive). For the same compound, the GI50 (SF-295) was > 100 µM (inactive), the GI50 (SF-539) was > 100 µM (inactive) and the GI50 (SK-MEL-28) was > 100 µM (inactive). The GI50 (SK-MEL-2) was > 100 µM (inactive), the GI50 (SK-MEL-5) was > 100 µM (inactive) and the GI50 (SK-OV-3) was > 100 µM (inactive). For the same compound, the GI50 (SN12C) was > 100 µM (inactive), the GI50 (SNB-19) was > 100 µM (inactive) and the GI50 (SR) was 90.8 µM (inactive). For the same compound, the GI50 (SW-620) was > 100 µM (inactive), the GI50 (TK-10) was > 100 µM (inactive) and the GI50 (UACC-257) was > 100 µM (inactive). The GI50 (UACC-62) was > 100 µM (inactive) and the GI50 (UO-31) was > 100 µM (inactive).

With `NC(=O)N/N=C\c1ccccc1OCc1cccc(COc2ccccc2/C=N\NC(N)=O)n1` the GI50 (786-0) was 20.5 µM (inactive), the GI50 (A498) was 98.6 µM (inactive) and the GI50 (A549) was > 100 µM (inactive). The GI50 (ACHN) was 26.2 µM (inactive), the GI50 (BT-549) was 26.9 µM (inactive) and the GI50 (CAKI-1) was > 100 µM (inactive). The GI50 (CCRF-CEM) was > 100 µM (inactive), the GI50 (COLO 205) was > 100 µM (inactive) and the GI50 (DU-145) was 18.8 µM (inactive). The GI50 (EKVX) was 18 µM (inactive), the GI50 (HCC 2998) was 21.3 µM (inactive) and the GI50 (HCT-116) was 33.9 µM (inactive). The GI50 (HCT-15) was 64.1 µM, the GI50 (HL-60) was > 100 µM (inactive) and the GI50 (HOP-62) was 12.4 µM (inactive). For the same compound, the GI50 (HOP-92) was 27.2 µM (inactive), the GI50 (HT-29) was > 100 µM (inactive) and the GI50 (Hs-578T) was 13.2 µM (inactive). For the same compound, the GI50 (IGROV-1) was 37.4 µM (inactive), the GI50 (K562) was > 100 µM (inactive) and the GI50 (KM12) was > 100 µM (inactive). For the same compound, the GI50 (LOX IMVI) was 46.1 µM (inactive), the GI50 (M14) was 49.2 µM (inactive) and the GI50 (MCF7) was > 100 µM (inactive). For the same compound, the GI50 (MDA-MB-231) was 14.6 µM (inactive), the GI50 (MDA-MB-435) was > 100 µM (inactive) and the GI50 (MDA-N) was > 100 µM (inactive). The GI50 (MOLT-4) was > 100 µM (inactive), the GI50 (Malme-3M) was 72.9 µM (inactive) and the GI50 (NCI-H226) was 73.6 µM (inactive). The GI50 (NCI-H23) was 30.1 µM (inactive), the GI50 (NCI-H460) was > 100 µM (inactive) and the GI50 (NCI-H522) was 64.4 µM (inactive). The GI50 (NCI/ADR-RES) was 57.4 µM (inactive), the GI50 (OVCAR-3) was > 100 µM (inactive) and the GI50 (OVCAR-4) was > 100 µM (inactive). The GI50 (OVCAR-5) was 41.2 µM (inactive), the GI50 (OVCAR-8) was 63.1 µM (inactive) and the GI50 (PC-3) was 86.9 µM (inactive). The GI50 (RPMI-8226) was > 100 µM (inactive), the GI50 (RXF 393) was 12.9 µM (inactive) and the GI50 (SF-268) was 21 µM (inactive). For the same compound, the GI50 (SF-295) was 17.1 µM (inactive), the GI50 (SF-539) was 19.3 µM (inactive) and the GI50 (SK-MEL-28) was > 100 µM (inactive). The GI50 (SK-MEL-2) was 28.8 µM (inactive), the GI50 (SK-MEL-5) was > 100 µM (inactive) and the GI50 (SK-OV-3) was 19 µM (inactive). The GI50 (SN12C) was > 100 µM (inactive), the GI50 (SNB-19) was 30.8 µM (inactive) and the GI50 (SW-620) was > 100 µM (inactive). The GI50 (TK-10) was 30.7 µM (inactive), the GI50 (U-251) was 5.56 µM (inactive) and the GI50 (UACC-257) was > 100 µM (inactive). For the same compound, the GI50 (UACC-62) was 19.1 µM (inactive) and the GI50 (UO-31) was 29.9 µM (inactive).

In the case of `COc1ccc(/C=N/n2c(C)n[nH]c2=O)cc1`, the GI50 (786-0) is reported as > 100 µM (inactive), the GI50 (A498) is reported as > 100 µM (inactive) and the GI50 (A549) is reported as > 100 µM (inactive). For the same compound, the GI50 (ACHN) was > 100 µM (inactive), the GI50 (BT-549) was > 100 µM (inactive) and the GI50 (CAKI-1) was > 100 µM (inactive). For the same compound, the GI50 (CCRF-CEM) was > 100 µM (inactive), the GI50 (COLO 205) was > 100 µM (inactive) and the GI50 (DU-145) was > 100 µM (inactive). The GI50 (EKVX) was 85.7 µM (inactive), the GI50 (HCC 2998) was > 100 µM (inactive) and the GI50 (HCT-116) was > 100 µM (inactive). The GI50 (HCT-15) was > 100 µM, the GI50 (HOP-62) was > 100 µM (inactive) and the GI50 (HT-29) was > 100 µM (inactive). The GI50 (K562) was > 100 µM (inactive), the GI50 (KM12) was > 100 µM (inactive) and the GI50 (M14) was > 100 µM (inactive). The GI50 (MCF7) was > 100 µM (inactive), the GI50 (MDA-MB-231) was > 100 µM (inactive) and the GI50 (MDA-MB-435) was > 100 µM (inactive). For the same compound, the GI50 (MDA-N) was > 100 µM (inactive), the GI50 (MOLT-4) was > 100 µM (inactive) and the GI50 (Malme-3M) was > 100 µM (inactive). For the same compound, the GI50 (NCI-H226) was > 100 µM (inactive), the GI50 (NCI-H23) was > 100 µM (inactive) and the GI50 (NCI-H460) was > 100 µM (inactive). The GI50 (NCI/ADR-RES) was > 100 µM (inactive), the GI50 (OVCAR-3) was 54.3 µM (inactive) and the GI50 (OVCAR-4) was 42.8 µM (inactive). For the same compound, the GI50 (OVCAR-5) was > 100 µM (inactive), the GI50 (OVCAR-8) was > 100 µM (inactive) and the GI50 (PC-3) was > 100 µM (inactive). The GI50 (RPMI-8226) was > 100 µM (inactive), the GI50 (SF-268) was > 100 µM (inactive) and the GI50 (SF-295) was > 100 µM (inactive). For the same compound, the GI50 (SF-539) was > 100 µM (inactive), the GI50 (SK-MEL-28) was > 100 µM (inactive) and the GI50 (SK-MEL-2) was > 100 µM (inactive). For the same compound, the GI50 (SK-OV-3) was > 100 µM (inactive), the GI50 (SN12C) was > 100 µM (inactive) and the GI50 (SNB-19) was > 100 µM (inactive). For the same compound, the GI50 (SNB-75) was > 100 µM (inactive), the GI50 (SW-620) was > 100 µM (inactive) and the GI50 (T47D) was > 100 µM (inactive). For the same compound, the GI50 (U-251) was > 100 µM (inactive), the GI50 (UACC-257) was > 100 µM (inactive) and the GI50 (UACC-62) was > 100 µM (inactive). The GI50 (UO-31) was > 100 µM (inactive).
